{"source": "paper PMC10910633", "about": "(Journal of the American Chemical Society, 2023)", "key": {"Jurkat E6-1 cells": {"system": "Jurkat E6-1 cells", "assay": "Cytotoxicity towards Jurkat lymphocytes", "type": "cell-based"}, "native PKCζ": {"target": "T1, native PKCζ (Mus musculus, UniProt Q02956)", "T1 sequence (Q02956 1-592)": "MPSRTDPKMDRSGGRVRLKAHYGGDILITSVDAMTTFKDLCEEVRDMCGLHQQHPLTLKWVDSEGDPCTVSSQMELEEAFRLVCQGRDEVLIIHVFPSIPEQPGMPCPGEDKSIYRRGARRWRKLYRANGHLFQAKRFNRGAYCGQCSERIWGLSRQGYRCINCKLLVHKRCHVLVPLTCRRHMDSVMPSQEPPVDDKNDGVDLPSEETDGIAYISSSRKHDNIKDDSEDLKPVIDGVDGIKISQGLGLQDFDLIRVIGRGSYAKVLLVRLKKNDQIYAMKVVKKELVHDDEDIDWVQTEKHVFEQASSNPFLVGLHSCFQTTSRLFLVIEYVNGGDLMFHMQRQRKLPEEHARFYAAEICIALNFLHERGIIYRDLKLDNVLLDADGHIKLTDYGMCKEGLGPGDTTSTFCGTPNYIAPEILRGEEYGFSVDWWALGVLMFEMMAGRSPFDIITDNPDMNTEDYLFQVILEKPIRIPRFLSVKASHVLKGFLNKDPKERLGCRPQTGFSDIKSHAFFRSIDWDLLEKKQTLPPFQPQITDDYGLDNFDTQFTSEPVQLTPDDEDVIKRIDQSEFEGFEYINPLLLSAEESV", "type": "binding"}, "native PKCβI": {"target": "native PKCβI (Mus musculus, UniProt P68404)", "sequence (P68404 whole entry)": "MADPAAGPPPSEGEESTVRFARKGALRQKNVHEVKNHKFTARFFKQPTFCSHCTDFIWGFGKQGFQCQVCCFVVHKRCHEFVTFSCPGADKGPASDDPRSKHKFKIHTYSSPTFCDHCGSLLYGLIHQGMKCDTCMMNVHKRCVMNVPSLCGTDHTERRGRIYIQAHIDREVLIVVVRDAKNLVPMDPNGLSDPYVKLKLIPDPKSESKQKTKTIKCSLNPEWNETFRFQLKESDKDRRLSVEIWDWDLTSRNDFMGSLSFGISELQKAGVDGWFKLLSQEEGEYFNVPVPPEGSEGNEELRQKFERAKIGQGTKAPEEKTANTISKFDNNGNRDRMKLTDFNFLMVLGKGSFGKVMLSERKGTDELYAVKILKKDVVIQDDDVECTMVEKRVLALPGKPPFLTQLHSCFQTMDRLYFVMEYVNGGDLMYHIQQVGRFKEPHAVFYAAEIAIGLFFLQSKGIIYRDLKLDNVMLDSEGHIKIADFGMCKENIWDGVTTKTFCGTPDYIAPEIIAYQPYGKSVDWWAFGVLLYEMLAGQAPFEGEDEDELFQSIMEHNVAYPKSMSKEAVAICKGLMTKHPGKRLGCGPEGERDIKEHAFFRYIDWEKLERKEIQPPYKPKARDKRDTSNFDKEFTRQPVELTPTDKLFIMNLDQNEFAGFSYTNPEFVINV", "assay": "cell-based", "type": "binding"}, "native PKCγ": {"target": "native PKCγ (Mus musculus, UniProt P63318)", "assay": "cell-based", "type": "binding"}, "native PKCη": {"target": "native PKCη (Mus musculus, UniProt P23298)", "sequence (P23298 whole entry)": "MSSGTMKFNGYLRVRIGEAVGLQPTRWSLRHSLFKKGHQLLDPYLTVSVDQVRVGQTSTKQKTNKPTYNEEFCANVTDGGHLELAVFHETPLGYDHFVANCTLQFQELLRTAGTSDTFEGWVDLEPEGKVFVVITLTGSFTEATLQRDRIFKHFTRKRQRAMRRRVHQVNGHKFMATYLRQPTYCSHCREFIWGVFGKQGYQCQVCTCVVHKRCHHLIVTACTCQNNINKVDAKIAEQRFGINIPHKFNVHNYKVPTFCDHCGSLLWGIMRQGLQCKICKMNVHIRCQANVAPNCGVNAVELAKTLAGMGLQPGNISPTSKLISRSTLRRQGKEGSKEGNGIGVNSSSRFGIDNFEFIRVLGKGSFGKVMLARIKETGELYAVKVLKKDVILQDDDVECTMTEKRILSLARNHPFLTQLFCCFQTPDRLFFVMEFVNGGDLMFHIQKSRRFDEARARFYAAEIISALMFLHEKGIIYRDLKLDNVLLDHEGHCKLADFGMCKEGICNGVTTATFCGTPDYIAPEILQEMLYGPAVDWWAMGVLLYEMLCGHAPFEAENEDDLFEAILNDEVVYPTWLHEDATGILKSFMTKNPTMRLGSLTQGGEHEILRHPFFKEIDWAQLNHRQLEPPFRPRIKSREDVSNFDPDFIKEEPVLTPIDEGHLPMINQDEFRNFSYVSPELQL", "assay": "cell-based", "type": "binding"}, "PKCδ": {"target": "PKCδ", "conditions": "read-out: Previously reported biochemical Ki values, PDBu; cited from earlier work"}, "native PKCε": {"target": "T2, native PKCε (Mus musculus, UniProt P16054)", "T2 sequence (P16054 1-737)": "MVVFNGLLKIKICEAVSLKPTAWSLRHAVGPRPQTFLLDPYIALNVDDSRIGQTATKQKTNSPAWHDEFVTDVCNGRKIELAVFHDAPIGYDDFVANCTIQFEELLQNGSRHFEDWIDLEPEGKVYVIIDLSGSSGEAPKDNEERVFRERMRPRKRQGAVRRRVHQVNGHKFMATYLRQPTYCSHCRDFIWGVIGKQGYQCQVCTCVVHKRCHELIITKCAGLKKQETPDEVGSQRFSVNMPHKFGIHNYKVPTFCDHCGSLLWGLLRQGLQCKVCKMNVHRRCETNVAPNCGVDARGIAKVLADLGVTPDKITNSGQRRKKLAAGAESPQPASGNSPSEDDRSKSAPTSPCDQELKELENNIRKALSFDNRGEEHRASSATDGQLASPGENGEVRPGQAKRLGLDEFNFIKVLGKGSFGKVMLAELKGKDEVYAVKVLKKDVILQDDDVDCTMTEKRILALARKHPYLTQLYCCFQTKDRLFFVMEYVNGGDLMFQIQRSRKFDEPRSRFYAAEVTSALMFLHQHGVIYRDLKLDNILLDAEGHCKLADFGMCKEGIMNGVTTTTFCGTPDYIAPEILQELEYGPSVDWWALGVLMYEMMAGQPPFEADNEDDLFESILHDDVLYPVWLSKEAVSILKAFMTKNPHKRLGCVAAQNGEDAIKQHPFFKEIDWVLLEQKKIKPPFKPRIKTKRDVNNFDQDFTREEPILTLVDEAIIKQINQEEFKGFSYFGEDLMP", "assay": "cell-based", "type": "binding"}, "native PKCδ": {"target": "native PKCδ (Mus musculus, UniProt P28867)", "sequence (P28867 whole entry)": "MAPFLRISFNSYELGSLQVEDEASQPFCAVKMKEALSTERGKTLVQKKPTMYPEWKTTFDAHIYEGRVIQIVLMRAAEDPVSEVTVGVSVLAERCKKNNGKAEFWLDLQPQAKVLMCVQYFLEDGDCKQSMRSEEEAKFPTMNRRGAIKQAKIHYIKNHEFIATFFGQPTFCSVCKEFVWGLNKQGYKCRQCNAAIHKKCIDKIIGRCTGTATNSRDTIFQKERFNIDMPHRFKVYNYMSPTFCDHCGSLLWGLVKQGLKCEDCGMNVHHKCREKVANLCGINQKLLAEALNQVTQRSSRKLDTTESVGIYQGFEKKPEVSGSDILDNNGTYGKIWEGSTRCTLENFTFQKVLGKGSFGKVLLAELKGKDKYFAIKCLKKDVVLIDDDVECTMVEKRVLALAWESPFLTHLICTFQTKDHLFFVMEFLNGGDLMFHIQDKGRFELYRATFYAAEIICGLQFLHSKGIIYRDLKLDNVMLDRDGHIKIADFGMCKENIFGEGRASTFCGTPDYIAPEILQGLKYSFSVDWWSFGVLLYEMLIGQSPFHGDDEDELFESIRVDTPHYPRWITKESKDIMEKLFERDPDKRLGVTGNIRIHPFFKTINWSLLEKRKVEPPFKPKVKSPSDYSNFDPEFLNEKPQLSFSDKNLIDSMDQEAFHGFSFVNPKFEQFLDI", "assay": "cell-based", "type": "binding"}, "HEK293T cells": {"system": "HEK293T cells", "assay": "Cytotoxicity towards HEK293T cells", "type": "cell-based", "conditions": "treatment for 48 h at concentrations of ≤ 10 μM"}, "native PKCθ": {"target": "native PKCθ (Mus musculus, UniProt Q02111)", "sequence (Q02111 whole entry)": "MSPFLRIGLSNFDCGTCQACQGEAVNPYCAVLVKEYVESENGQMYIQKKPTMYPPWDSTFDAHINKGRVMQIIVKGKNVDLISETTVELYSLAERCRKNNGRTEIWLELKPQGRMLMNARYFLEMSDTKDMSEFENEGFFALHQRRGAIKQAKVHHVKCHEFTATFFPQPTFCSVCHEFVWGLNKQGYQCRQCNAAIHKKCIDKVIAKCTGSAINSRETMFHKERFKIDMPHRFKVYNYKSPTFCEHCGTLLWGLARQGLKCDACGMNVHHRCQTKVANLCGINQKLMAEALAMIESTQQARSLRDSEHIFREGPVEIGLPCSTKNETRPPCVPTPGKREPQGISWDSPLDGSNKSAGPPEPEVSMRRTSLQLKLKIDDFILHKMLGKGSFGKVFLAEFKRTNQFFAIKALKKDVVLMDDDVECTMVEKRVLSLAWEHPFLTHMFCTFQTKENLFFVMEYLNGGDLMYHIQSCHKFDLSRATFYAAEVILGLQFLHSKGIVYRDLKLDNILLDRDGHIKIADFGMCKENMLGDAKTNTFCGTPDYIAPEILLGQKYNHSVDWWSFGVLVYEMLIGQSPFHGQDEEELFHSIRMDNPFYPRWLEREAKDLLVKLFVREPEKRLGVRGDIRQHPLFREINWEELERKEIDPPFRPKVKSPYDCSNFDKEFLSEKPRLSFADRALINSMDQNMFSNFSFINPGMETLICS", "assay": "cell-based", "type": "binding"}, "native PKCα": {"target": "native PKCα (Mus musculus, UniProt P20444)", "assay": "cell-based"}, "PKCε": {"target": "PKCε", "conditions": "read-out: Previously reported biochemical Ki values, Bryostatin 1, [3H]PDBu at 4 °C; cited from earlier work"}, "PKCζ": {"target": "PKCζ", "conditions": "[3H]PDBu at 4 °C; cited from earlier work"}, "PKCη": {"target": "PKCη", "conditions": "read-out: Previously reported biochemical Ki values, Bryostatin 1, [3H]PDBu at 4 °C; cited from earlier work"}, "PKCθ": {"target": "PKCθ", "conditions": "read-out: Previously reported biochemical Ki values, Bryostatin 1, [3H]PDBu at 4 °C; cited from earlier work"}, "PKCβI": {"target": "PKCβI", "conditions": "read-out: Previously reported biochemical Ki values, Bryostatin 1, [3H]PDBu at 4 °C; cited from earlier work"}, "PKCγ": {"target": "PKCγ", "conditions": "read-out: Previously reported biochemical Ki values, Bryostatin 1, [3H]PDBu at 4 °C; cited from earlier work"}, "PKCα": {"target": "PKCα", "conditions": "read-out: Previously reported biochemical Ki values, Bryostatin 1, [3H]PDBu at 4 °C; cited from earlier work"}, "[1]": {"conditions": "read-out: Cellular Ki values for native PKCs"}}, "note": "Read-outs that look alike come from different tables or passages of the source.", "data": [{"molecule": "CN(C)CCCn1cc(C2=C(c3c[nH]c4ccccc34)C(=O)NC2=O)c2ccccc21", "note": "[BIM1, bisindolylmaleimide I]", "values": [{"measurement": "effect of BIM1 on cytotoxicity of probes 1–3 towards Jurkat lymphocytes", "setting": "Jurkat E6-1 cells", "value": "reduced or eliminated"}, {"measurement": "effect of BIM1 on toxicity of PDBu towards Jurkat lymphocytes", "setting": "Jurkat E6-1 cells; BIM1 2 μM", "value": "completely blocked"}]}, {"molecule": "CCCC(=O)O[C@@H]1[C@@H](C)[C@@]2(O)[C@@H](C=C(CO)C[C@]3(O)C(=O)C(C)=C[C@@H]23)[C@@H]2C(C)(C)[C@]12OC(=O)CCC", "note": "[PDBu, phorbol 12, 13-dibutyrate]", "values": [{"measurement": "Cellular Ki values for native PKCs", "setting": "native PKCζ", "value": "No binding"}, {"measurement": "fluctuation in measured cellular IC50 and Ki values", "setting": "native PKCβI", "value": "less than 3 fold"}, {"measurement": "Ki", "setting": "native PKCβI; [1]", "value": 15, "unit": "nM"}, {"measurement": "IC50", "setting": "Jurkat E6-1 cells; read-out: cytotoxic potency towards Jurkat lymphocytes, IC50", "value": 2, "unit": "nM"}, {"measurement": "Ki", "setting": "native PKCγ; [1]", "value": 18, "unit": "nM"}, {"measurement": "Ki", "setting": "native PKCη; [1]", "value": 27, "unit": "nM"}, {"measurement": "Ki", "setting": "PKCδ", "value": "[…]"}, {"measurement": "Ki", "setting": "native PKCε; [1]", "value": 43, "unit": "nM"}, {"measurement": "lower affinity for PKCδ in cells than in biochemical assays", "setting": "native PKCδ", "value": 10, "unit": "fold"}, {"measurement": "Ki", "setting": "native PKCδ; [1]", "value": 45, "unit": "nM"}, {"measurement": "cytotoxicity towards HEK293T cells", "setting": "HEK293T cells", "value": "non-toxic"}, {"measurement": "Ki", "setting": "native PKCθ; [1]", "value": 49, "unit": "nM"}]}, {"molecule": "CCC/C=C/C=C/C(=O)O[C@H]1/C(=C/C(=O)OC)C[C@H]2C[C@H]([C@@H](C)O)OC(=O)C[C@H](O)C[C@@H]3C[C@H](OC(C)=O)C(C)(C)[C@](O)(C[C@@H]4C/C(=C/C(=O)OC)C[C@H](/C=C/C(C)(C)[C@]1(O)O2)O4)O3", "note": "[bryostatin 1]", "values": [{"measurement": "Ki", "setting": "native PKCα", "value": 4, "unit": "nM"}, {"measurement": "Cellular Ki values for native PKCs", "setting": "native PKCζ; PKCζ, competition with probe 1, BIM1 2 μM, 2 h 37 °C", "value": "No binding"}, {"measurement": "Ki", "setting": "PKCε", "value": "[…]"}, {"measurement": "Previously reported biochemical Ki values, Bryostatin 1", "setting": "PKCζ", "value": "No binding"}, {"measurement": "Ki", "setting": "PKCη", "value": "[…]"}, {"measurement": "Ki", "setting": "native PKCβI", "value": 2, "unit": "nM"}, {"measurement": "Ki", "setting": "PKCθ", "value": "[…]"}, {"measurement": "Ki", "setting": "native PKCγ", "value": 2, "unit": "nM"}, {"measurement": "Ki", "setting": "native PKCη", "value": 5, "unit": "nM"}, {"measurement": "Ki", "setting": "PKCβI", "value": "[…]"}, {"measurement": "Ki", "setting": "PKCγ", "value": "[…]"}, {"measurement": "Ki", "setting": "native PKCε", "value": 11, "unit": "nM"}, {"measurement": "Ki", "setting": "native PKCδ", "value": 17, "unit": "nM"}, {"measurement": "lower affinity for PKCδ in cells than in biochemical assays", "setting": "native PKCδ; cellular Ki versus previously reported biochemical Ki", "value": 8, "unit": "fold"}, {"measurement": "Ki", "setting": "PKCα", "value": "[…]"}, {"measurement": "Ki", "setting": "native PKCθ", "value": 8, "unit": "nM"}]}]}
